From patent US8802597B2, “Herbicidal pyrimidines” (E I du Pont de Nemours and Company, priority 2003, dated 2014)

Experiments:
Assay type in all cases: in vivo
[1] = test system: Surinam grass (Brachiaria decumbens); assay: Test B pre/postemergence
Description: (§1) Seeds selected from barnyardgrass (Echinochloa crus-galli), Surinam grass (Brachiaria decumbens), cocklebur (Xanthium strumarium), corn (Zea mays), crabgrass (Digitaria sanguinalis), giant foxtail (Setaria faberii), lambsquarters (Chenopodium album), morningglory (Ipomoea coccinea), pigweed (Amaranthus retroflexus), velvetleaf (Abutilon theophrasti), and wheat (Triticum aestivum) were planted and treated preemergence with test chemicals formulated in a non-phytotoxic solvent mixture which included a surfactant.
(§2) At the same time, plants selected from these crop and weed species and also blackgrass (Alopecurus myosuroides) and wild oat (Avena fatua) were treated with postemergence applications of test chemicals formulated in the same manner. Plants ranged in height from 2 to 18 cm (1- to 4-leaf stage) for postemergence treatments. Plant species in the flooded paddy test consisted of rice (Oryza sativa), umbrella sedge (Cyperus difformis), duck salad (Heteranthera limosa) and barnyardgrass (Echinochloa crus-galli) grown to the 2-leaf stage for testing. Treated plants and controls were maintained in a greenhouse for 13 to 15 days, after which time all species were compared to controls and visually evaluated. Plant response ratings, summarized in Table B, are based on a scale of 0 to 100 where 0 is no effect and 100 is complete control. A dash (-) response means no test result.

[2] = test system: barnyardgrass (Echinochloa crus-galli); assay: Test B pre/postemergence
Description: as §1, §2

[3] = test system: cocklebur (Xanthium strumarium); assay: Test B pre/postemergence
Description: as §1, §2

[4] = test system: corn (Zea mays); assay: Test B pre/postemergence
Description: as §1, §2

[5] = test system: crabgrass (Digitaria sanguinalis); assay: Test B pre/postemergence
Description: as §1, §2

[6] = test system: giant foxtail (Setaria faberii); assay: Test B pre/postemergence
Description: as §1, §2

[7] = test system: lambsquarters (Chenopodium album); assay: Test B pre/postemergence; details: Postemergence; for Lambsquarters plant response rating: 125 g ai/ha, scale 0 to 100 (0 no effect, 100 complete control); for Plant response rating, Lambsquarters: 500 g ai/ha, scale 0 to 100
Description: as §1, §2

[8] = test system: morningglory (Ipomoea coccinea); assay: Test B pre/postemergence
Description: as §1, §2

[9] = test system: pigweed (Amaranthus retroflexus); assay: Test B pre/postemergence
Description: as §1, §2

[10] = test system: velvetleaf (Abutilon theophrasti); assay: Test B pre/postemergence
Description: as §1, §2

[11] = test system: wheat (Triticum aestivum); assay: Test B pre/postemergence
Description: as §1, §2

[12] = test system: blackgrass (Alopecurus myosuroides); assay: Test B postemergence; details: for Blackgrass plant response rating: 125 g ai/ha, scale 0 to 100 (0 no effect, 100 complete control); for Plant response rating, Blackgrass: 500 g ai/ha, scale 0 to 100
Description: as §1, §2

[13] = test system: wild oat (Avena fatua); assay: Test B postemergence; details: for Oat, Wild plant response rating: 125 g ai/ha, scale 0 to 100 (0 no effect, 100 complete control); for Plant response rating, Oat, Wild: 500 g ai/ha, scale 0 to 100
Description: as §1, §2

[14] = Postemergence, 125 g ai/ha, scale 0 to 100 (0 no effect, 100 complete control)
[15] = Postemergence, 500 g ai/ha, scale 0 to 100
[16] = Preemergence, 125 g ai/ha, scale 0 to 100 (0 no effect, 100 complete control)
[17] = Preemergence, 500 g ai/ha, scale 0 to 100 (0 no effect, 100 complete control)

CCOC(=O)c1nc(C2CC2)nc(NOC)c1Br [Compound 52]
40: Cocklebur plant response rating [3, 14] | Foxtail, Giant plant response rating [6, 14] | Velvetleaf plant response rating [10, 14]
50: Plant response rating, Pigweed [9, 17] | Plant response rating, Velvetleaf [10, 15] | Plant response rating, Blackgrass [12]
80: Plant response rating, Barnyardgrass [2, 15] | Lambsquarters plant response rating [7]
0: Surinam Grass plant response rating [1, 14] | Plant response rating, Surinam Grass [1, 16] | Plant response rating, Surinam Grass [1, 17] | Plant response rating, Barnyardgrass [2, 16] | Corn plant response rating [4, 14] | Plant response rating, Corn [4, 17] | Crabgrass plant response rating [5, 14] | Plant response rating, Crabgrass [5, 16] | Plant response rating, Crabgrass [5, 17] | Plant response rating, Foxtail, Giant [6, 16] | Plant response rating, Foxtail, Giant [6, 17] | Plant response rating, Velvetleaf [10, 16] | Wheat plant response rating [11, 14] | Plant response rating, Wheat [11, 16] | Plant response rating, Wheat [11, 17] | Blackgrass plant response rating [12] | Oat, Wild plant response rating [13]
20: Plant response rating, Wheat [11, 15] | Plant response rating, Oat, Wild [13]
10: Plant response rating, Cocklebur [3, 16] | Plant response rating, Morningglory [8, 16]
90: Plant response rating, Lambsquarters [7] | Morningglory plant response rating [8, 14] | Plant response rating, Morningglory [8, 15] | Plant response rating, Pigweed [9, 15]
60: Plant response rating, Cocklebur [3, 15] | Plant response rating, Cocklebur [3, 17] | Plant response rating, Corn [4, 15] | Plant response rating, Crabgrass [5, 15] | Plant response rating, Foxtail, Giant [6, 15] | Pigweed plant response rating [9, 14]
100: Plant response rating, Morningglory [8, 17]
30: Plant response rating, Surinam Grass [1, 15] | Barnyardgrass plant response rating [2, 14] | Plant response rating, Barnyardgrass [2, 17] | Plant response rating, Velvetleaf [10, 17]

CCOC(=O)c1nc(C2CC2)nc(NOCC(=O)O)c1Br [Compound 125]
90: Plant response rating, Cocklebur [3, 17] | Plant response rating, Morningglory [8, 15] | Plant response rating, Pigweed [9, 17] | Plant response rating, Velvetleaf [10, 17]
30: Plant response rating, Cocklebur [3, 16] | Plant response rating, Crabgrass [5, 15] | Plant response rating, Morningglory [8, 16] | Plant response rating, Pigweed [9, 16]
100: Plant response rating, Crabgrass [5, 17] | Plant response rating, Morningglory [8, 17]
40: Cocklebur plant response rating [3, 14] | Plant response rating, Foxtail, Giant [6, 15]
60: Plant response rating, Cocklebur [3, 15] | Lambsquarters plant response rating [7] | Pigweed plant response rating [9, 14] | Plant response rating, Pigweed [9, 15]
20: Crabgrass plant response rating [5, 14] | Plant response rating, Blackgrass [12] | Plant response rating, Oat, Wild [13]
0: Surinam Grass plant response rating [1, 14] | Plant response rating, Surinam Grass [1, 16] | Plant response rating, Surinam Grass [1, 17] | Barnyardgrass plant response rating [2, 14] | Plant response rating, Barnyardgrass [2, 16] | Corn plant response rating [4, 14] | Plant response rating, Corn [4, 15] | Plant response rating, Corn [4, 16] | Plant response rating, Corn [4, 17] | Plant response rating, Crabgrass [5, 16] | Foxtail, Giant plant response rating [6, 14] | Plant response rating, Foxtail, Giant [6, 16] | Plant response rating, Foxtail, Giant [6, 17] | Velvetleaf plant response rating [10, 14] | Wheat plant response rating [11, 14] | Plant response rating, Wheat [11, 15] | Plant response rating, Wheat [11, 16] | Plant response rating, Wheat [11, 17] | Blackgrass plant response rating [12] | Oat, Wild plant response rating [13]
50: Plant response rating, Velvetleaf [10, 15]
70: Plant response rating, Barnyardgrass [2, 15] | Plant response rating, Lambsquarters [7] | Morningglory plant response rating [8, 14]
10: Plant response rating, Surinam Grass [1, 15] | Plant response rating, Velvetleaf [10, 16]

CCOC(=O)c1nc(C2CC2)nc(NOC(C)(C)C)c1Br [Compound 55]
80: Plant response rating, Cocklebur [3, 15] | Morningglory plant response rating [8, 14] | Plant response rating, Morningglory [8, 16] | Plant response rating, Pigweed [9, 15] | Plant response rating, Pigweed [9, 16]
60: Plant response rating, Barnyardgrass [2, 17] | Plant response rating, Crabgrass [5, 17]
50: Plant response rating, Surinam Grass [1, 17] | Plant response rating, Barnyardgrass [2, 15] | Plant response rating, Crabgrass [5, 16] | Plant response rating, Velvetleaf [10, 16]
40: Plant response rating, Blackgrass [12]
100: Plant response rating, Morningglory [8, 17] | Plant response rating, Pigweed [9, 17]
30: Plant response rating, Crabgrass [5, 15] | Plant response rating, Velvetleaf [10, 15] | Blackgrass plant response rating [12]
20: Cocklebur plant response rating [3, 14] | Plant response rating, Corn [4, 15] | Foxtail, Giant plant response rating [6, 14] | Plant response rating, Foxtail, Giant [6, 15] | Plant response rating, Oat, Wild [13]
0: Surinam Grass plant response rating [1, 14] | Plant response rating, Surinam Grass [1, 15] | Plant response rating, Surinam Grass [1, 16] | Barnyardgrass plant response rating [2, 14] | Plant response rating, Barnyardgrass [2, 16] | Corn plant response rating [4, 14] | Plant response rating, Corn [4, 16] | Plant response rating, Corn [4, 17] | Crabgrass plant response rating [5, 14] | Plant response rating, Foxtail, Giant [6, 16] | Plant response rating, Foxtail, Giant [6, 17] | Wheat plant response rating [11, 14] | Plant response rating, Wheat [11, 15] | Plant response rating, Wheat [11, 16] | Oat, Wild plant response rating [13]
70: Plant response rating, Cocklebur [3, 16] | Lambsquarters plant response rating [7] | Pigweed plant response rating [9, 14] | Plant response rating, Wheat [11, 17]
10: Velvetleaf plant response rating [10, 14]
90: Plant response rating, Cocklebur [3, 17] | Plant response rating, Lambsquarters [7] | Plant response rating, Morningglory [8, 15] | Plant response rating, Velvetleaf [10, 17]

CCOC(=O)c1nc(C2CC2)nc(N2CCCC2)c1Br [Compound 56]
50: Plant response rating, Morningglory [8, 15] | Pigweed plant response rating [9, 14]
30: Plant response rating, Barnyardgrass [2, 15] | Plant response rating, Cocklebur [3, 17] | Plant response rating, Lambsquarters [7] | Plant response rating, Velvetleaf [10, 17]
70: Plant response rating, Pigweed [9, 15]
0: Surinam Grass plant response rating [1, 14] | Plant response rating, Surinam Grass [1, 15] | Plant response rating, Surinam Grass [1, 16] | Plant response rating, Surinam Grass [1, 17] | Barnyardgrass plant response rating [2, 14] | Plant response rating, Barnyardgrass [2, 16] | Plant response rating, Barnyardgrass [2, 17] | Cocklebur plant response rating [3, 14] | Plant response rating, Cocklebur [3, 16] | Corn plant response rating [4, 14] | Plant response rating, Corn [4, 15] | Plant response rating, Corn [4, 16] | Plant response rating, Corn [4, 17] | Crabgrass plant response rating [5, 14] | Plant response rating, Crabgrass [5, 15] | Plant response rating, Crabgrass [5, 16] | Plant response rating, Crabgrass [5, 17] | Foxtail, Giant plant response rating [6, 14] | Plant response rating, Foxtail, Giant [6, 15] | Plant response rating, Foxtail, Giant [6, 16] | Plant response rating, Foxtail, Giant [6, 17] | Morningglory plant response rating [8, 14] | Velvetleaf plant response rating [10, 14] | Plant response rating, Velvetleaf [10, 15] | Plant response rating, Velvetleaf [10, 16] | Wheat plant response rating [11, 14] | Plant response rating, Wheat [11, 15] | Plant response rating, Wheat [11, 16] | Plant response rating, Wheat [11, 17] | Blackgrass plant response rating [12] | Oat, Wild plant response rating [13]
20: Plant response rating, Cocklebur [3, 15] | Lambsquarters plant response rating [7] | Plant response rating, Morningglory [8, 17] | Plant response rating, Blackgrass [12] | Plant response rating, Oat, Wild [13]
80: Plant response rating, Pigweed [9, 17]
